How the values were obtained:
[1] = system: human breast cancer cell line MCF-7; assay: Proliferation of MCF-7 cancer cells; format: cell-based; details: controls, MCF-7, 8 days
Description: FIG. 7: Cyclin-B1 siRNA inhibits tumour growth. Exponentially MCF-7 growing cells (1-3 10^4) were incubated with different concentrations (10 nM, 50 nM, 100 nM) of siRNA or mismatched siRNA complexed or not with MPG (molecular ratio 1:10) and cell proliferation was assessed 8 days post incubation.
Cell culture, MPG mediated transfection. Adherent fibroblastic Hs68 (ATCC no CRL-1635), 293 (ATCC no CRL-1573), HeLa (ATCC no CCL-2) and MCF-7 (ATCC no HTB-22) cell lines were cultured in Dulbecco's Modified Eagle's Medium supplemented with […] glutamine, 1% antibiotics (streptomycin 10,000 μg/ml, penicillin, 10,000 IU/ml) and 10% (w/v) fetal calf serum (FCS), at 37° C. in a humidified atmosphere containing 5% CO2. For MPG-mediated delivery of siRNA, complexes were formed by incubation of different concentrations of siRNA from 10 nM to 1 μM with MPG at a molecular ratio of 1:10, respectively, in 500 μl of DMEM for 30 min at 37° C. Cells grown to 40 to 60% confluence were then overlaid with preformed complexes. After 30 min incubation at 37° C., 1 ml of fresh DMEM supplemented with 10% fetal calf serum was added directly to the cells, without removing the overlay of siRNA/MPG complexes, and cells were returned to the incubator. Different concentrations of siRNA or phosphorothioate oligonucleotide were transfected with cationic lipids, Lipofectamine or Oligofectamine (Invitrogen, Carlsbad, US), according to the guidelines of the manufacturer.
As delivery of siRNA directed against cyclin B1 promotes efficient downregulation of both cyclin B1 mRNA and protein levels, it was looked for to what extent this might affect proliferation of cancer cells. The effect of siRNA was investigated on the human breast cancer cell line MCF-7. Exponentially growing cells (1-3 10^4) were incubated with different concentrations (10 nM, 50 nM, 100 nM) of siRNA or mismatched siRNA complexed or not with MPG (molecular ratio 1:10) and cell proliferation was assessed 8 days post incubation (FIG. 7).

[2] = system: human fibroblasts (Hs68) or HeLa cells; assay: Delivery of pRL-SV40 luciferase plasmid with inhibitors of the endosomal pathway or at 4° C.; format: cell-based
Description: FIG. 1: MPG-mediated gene delivery in the presence of inhibitors of the endosomal pathway. A/ MPG/DNA complexes formed at a charge ratio of 5/1 with 100 ng pRL-SV40 plasmid encoding the reporter gene luciferase were overlaid onto human fibroblasts (Hs68) in the presence of either bafilomycin A (Baf-A: 150 nM), cytochalasin B (Cy-B: 50 μg/ml) or chloroquine (Chi: 100 μM). After 48 hrs cell extracts were prepared and luciferase activity was measured and reported as a function of total protein (black). Similar experiments were performed using a lipid-based delivery system, Lipofectamine™, as a control (white). Experiments in the absence of inhibitors were also performed using an MPG peptide lacking a C-terminal cysteamide group (grey). B/ A 36mer fluorescein labelled oligonucleotide was complexed with MPG at a charge ratio of 5/1. Complexes were then overlaid onto cultured Hela cells in the presence of bafilomycin A (middle panel) or cytochalasin B (bottom panel) and cellular localization of the oligonucleotide was monitored by fluorescence microscopy on living cells 1 hr after transfection. A control experiment with free oligonucleotide is shown in the top panel.
Hs68, Cos-7 and HeLa cell lines were cultured in Dulbecco's Modified Eagle's Medium supplemented with 2 mM glutamine, 1% antibiotics (streptomycin 10 000 μg/ml, penicillin, 10,000 IU/ml) and 10% (w/v) fetal calf serum (FCS) at 37° C. in a humidified atmosphere containing 5% CO2 as described previously (18). For MPG or MPG^ΔNLS-mediated gene delivery, peptide carrier/DNA complexes were formed in DMEM or PBS (500 μl of DMEM containing 100 ng of DNA complexed with MPG at a charge ratio 5:1) and incubated for 30 min at 37° C. Cells grown to 60% confluence were then overlaid with these preformed complexes. […]
For cell cycle-dependent studies, Hs68 fibroblasts were synchronized by serum deprivation for 40 hrs, then restimulated to enter the cycle and grow into early G1 for 4 hrs by addition of fresh DMEM supplemented with 20% FCS, and incubated in the presence of MPG/DNA complexes as described above. Luciferase activity was monitored as described previously (19) and control transfection experiments were performed using Lipofectamine™. […]
A plasmid encoding the reporter gene luciferase, pRL-SV40, was associated with MPG carrier at a charge ratio of 5:1 (MPG/DNA) and overlaid onto cultured human fibroblasts (Hs68) or HeLa cells in the presence of either bafilomycin A (150 nM), chloroquine (100 μM) or cytochalasin B (50 μg/ml). Transfection efficiency was monitored 30 hrs after transfection and Lipofectamine™ was used as a standard control method for transfection. […]

[3] = system: single- and double-stranded oligonucleotides (DNA); details: cited from earlier work

GALFLGFLGAAGSTMGAWSQPKKKRKV (carrier peptide) [MPG, bipartite amphipathic peptide derived from fusion peptide domain of HIV-1 gp41 and NLS of SV40 large T antigen]
effect on cell proliferation [1]: neither free siRNA or scrambled molecules, or the peptide carrier alone affected cell proliferation | localization of fluorescently labelled oligonucleotide in presence of inhibitors ([2]; 36mer fluorescein oligonucleotide, charge ratio 5/1, Hela cells, after one hour): localized to the nucleus and to cytoplasm of the cells | increase of efficiency by chloroquine ([2]; chloroquine 100 μM, pRL-SV40): 10% | transfection efficiency in presence of bafilomycin A or cytochalasin B ([2]; pRL-SV40, charge ratio 5:1, bafilomycin A 150 nM, cytochalasin B 50 μg/ml): not affected | reduction of transfection efficiency at 4° C. ([2]; transfection performed at 4° C.): 12 fold | affinity for single-stranded relative to double-stranded oligonucleotides [3]: at least 2 fold
